Target: T1, AbApeQ (Acinetobacter baumannii, UniProt Z9NHK5QJZ4)
T1 construct: full-length, pET28a, N-terminal His-tag removed with thrombin, expressed in E. coli BL21 (DE3)
Experiment: X-ray crystallography (co-crystallization)
Type: binding
Conditions: 1:3 molar ratio of NADPH; 0.2 M potassium sodium tartrate, 20% PEG 3350; active site; NADPH density in two of four molecules

## NC(=O)C1=CN([C@@H]2O[C@H](COP(=O)(O)OP(=O)(O)OC[C@H]3O[C@@H](n4cnc5c(N)ncnc54)[C@H](OP(=O)(O)O)[C@@H]3O)[C@@H](O)[C@H]2O)C=CC1 [NADPH]
  X-ray crystallography (co-crystallization): We obtained the structure of the AbApeQ–NADPH complex by co-crystallization of AbApeQ and NADPH.

From PMC8041823, “Structural comparison of Acinetobacter baumannii β-ketoacyl-acyl carrier protein reductases in fatty acid and aryl polyene biosynthesis” (Scientific Reports, 2021)
